We go through 31 molecules from US10925874B2, “Substituted pyrazolopyrimidines as glucocerebrosidase activators” (The United States of America, as Represented by the …, priority 2010, dated 2021).

Where “and” joins values, the source holds several entries; their conditions need not be identical. Identical values can stand only once.

The target in this assay is T1, N370S glucocerebrosidase from human spleen homogenate (Homo sapiens, UniProt P04062, N409S).
T1 construct: N370S glucocerebrosidase from human spleen homogenate as the enzyme preparation; from tissue; host or cells: human spleen homogenate
T1 sequence (P04062 40-536 N409S): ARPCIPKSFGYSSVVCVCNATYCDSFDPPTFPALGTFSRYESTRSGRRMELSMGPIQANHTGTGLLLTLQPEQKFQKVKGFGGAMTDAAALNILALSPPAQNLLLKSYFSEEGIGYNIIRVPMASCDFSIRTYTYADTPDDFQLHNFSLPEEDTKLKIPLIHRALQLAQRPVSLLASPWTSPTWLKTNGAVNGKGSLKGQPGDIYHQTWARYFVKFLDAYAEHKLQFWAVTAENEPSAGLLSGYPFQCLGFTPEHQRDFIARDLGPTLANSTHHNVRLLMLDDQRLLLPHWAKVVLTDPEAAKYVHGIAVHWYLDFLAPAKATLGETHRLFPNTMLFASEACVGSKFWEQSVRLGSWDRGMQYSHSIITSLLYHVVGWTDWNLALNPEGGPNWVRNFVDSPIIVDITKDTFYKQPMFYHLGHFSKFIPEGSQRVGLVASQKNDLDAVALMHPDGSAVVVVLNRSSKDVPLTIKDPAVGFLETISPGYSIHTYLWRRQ
Put plainly: qHTS fluorogenic enzyme assay for activators of N370S glucocerebrosidase (4-methylumbelliferyl-beta-D-glucopyranoside substrate). The format is biochemical. To be noted: pH 5.0, 37° C. 40 min. An excerpt:
qHTS Assay for Inhibitors and Activators of N370S glucocerebrosidase as a Potential Chaperone Treatment of Gaucher Disease: Primary Screen Confirmation
This is a fluorogenic enzyme assay with 4-methylumbelliferyl-beta-D-glucopyranoside as the substrate and N370S glucocerebrosidase from human spleen homogenate as the enzyme preparation. Upon the hydrolysis of this fluorogenic substrate, the resulting product, […] which can be detected by a standard fluorescence plate reader. Data were normalized to the controls for basal activity (without enzyme) and 100% activity (with enzyme). The AC50 values were determined from concentration-response data modeled with the standard Hill equation.
Human spleen homogenate is prepared as follows by homogenizing spleen with assay buffer containing 50 mM citric acid (titrated with potassium phosphate to pH 5.0), 100 mM potassium chloride, 10 mM sodium chloride, 1 mM magnesium chloride, 0.01% Tween-20. The protein concentration of the human spleen homogenate is approximated 1.35 ug/ul.
The assay is performed in 1536 well plates according to the following protocol. (1) 2 ul spleen homogenate ([…] final) is added to each well. (2) 23 nL test compound in DMSO solution is added to each well. The final concentration of compound in the test well is 0.5 nM to 58 uM. (3) 2 ul of substrate (1 mM final) are added to each well. (4) Incubate assay plates at 37° C. for 40 min. (5) Add 2 ul stop solution (1M NaOH and 1M Glycine mixture, pH 10) to each well. (6) Detect the assay plate in a ViewLux plate reader (PerkinElmer) using 365 nm excitation with emission at 440 nm.
A general note: In qHTS, concentration-response curves come from the screen itself.

In the case of `C=C1C=C(C(F)F)n2ncc(C(=O)N3CCN(c4ccccn4)CC3)c2N1` [NCGC00182144-01, (7-(difluoromethyl)-5-methylene-4,5-dihydropyrazolo[1,5-a]pyrimidin-3-yl)(4-(pyridin-2-yl)piperazin-1-yl)methanone], half-maximal activity (AC50) was put at 35.5 µM. The value for `O=C(Nc1cccc(Nc2ccccc2)c1)c1cnn2c1NC(=C1CC1)C=C2C(F)F` [NCGC00182185-01, 5-cyclopropylidene-7-(difluoromethyl)-N-(3-(phenylamino)phenyl)-4,5-dihydropyrazolo[1,5-a]pyrimidine-3-carboxamide] was 12.6 µM; that for `Cc1cc(C)n2ncc(C(=O)Nc3ccc(C#N)cc3)c2n1` [NCGC00188769-01, N-(4-cyanophenyl)-5,7-dimethylpyrazolo[1,5-a]pyrimidine-3-carboxamide] was 20.6 µM; that for `CCc1ccc(NC(=O)c2cnn3c(-c4ccccc4)cc(C)nc23)cc1` [NCGC00229717-01, N-(4-ethylphenyl)-5-methyl-7-phenylpyrazolo[1,5-a]pyrimidine-3-carboxamide] was 9.19 µM. The figure for `Cc1cccc(NC(=O)c2cnn3c(C)cc(C)nc23)c1` [NCGC00188771-01, 5,7-dimethyl-N-m-tolylpyrazolo[1,5-a]pyrimidine-3-carboxamide] is 6.51 µM; for `C=C1C=C(C(F)F)n2ncc(C(=O)NCc3ccccc3Cl)c2N1` [NCGC00182148-01, N-(2-chlorobenzyl)-7-(difluoromethyl)-5-methylene-4,5-dihydropyrazolo[1,5-a]pyrimidine-3-carboxamide] it is 14.1 µM. The value for `Cc1cc(C)n2ncc(C(=O)Nc3ccc4c(c3)CCC4)c2n1` [NCGC00187969-01, N-(2,3-dihydro-1H-inden-5-yl)-5,7-dimethylpyrazolo[1,5-a]pyrimidine-3-carboxamide] was 2.59 µM; that for `Cc1cc(C)n2ncc(C(=O)Nc3ccc4c(c3)OCCO4)c2n1` [NCGC00188773-01, N-(2,3-dihydrobenzo[b][1,4]dioxin-6-yl)-5,7-dimethylpyrazolo[1,5-a]pyrimidine-3-carboxamide] was 10.3 µM.

As to `COc1ccc(NC(=O)c2cnn3c(C)cc(C)nc23)cc1` [NCGC00188768-01, N-(4-methoxyphenyl)-5,7-dimethylpyrazolo[1,5-a]pyrimidine-3-carboxamide], the half-maximal activity concentration (AC50) (usually the midpoint of the concentration-response curve, whichever way the signal moves) came to 8.19 µM. The figure for `O=C(Nc1ccccc1Br)c1cnn2c1NC(=C1CC1)C=C2C(F)F` [NCGC00182188-01, N-(2-bromophenyl)-5-cyclopropylidene-7-(difluoromethyl)-4,5-dihydropyrazolo[1,5-a]pyrimidine-3-carboxamide] is 12.6 µM; for `C=C1C=C(C(F)F)n2ncc(C(=O)NC(C)CC)c2N1` (stereo not shown) [NCGC00182145-01, N-sec-butyl-7-(difluoromethyl)-5-methylene-4,5-dihydropyrazolo[1,5-a]pyrimidine-3-carboxamide] it is 31.6 µM; for `C=C1C=C(C(F)F)n2ncc(C(=O)Nc3cccc(CC)c3)c2N1` [NCGC00182142-01, 7-(difluoromethyl)-N-(3-ethylphenyl)-5-methylene-4,5-dihydropyrazolo[1,5-a]pyrimidine-3-carboxamide] it is 10 µM. The molecule `Cc1cc(-c2ccccc2)nc2c(C(=O)NC3CCC(C(C)(C)C)CC3)cnn12` (stereo not shown) [NCGC00229707-01, N-(4-tert-butylcyclohexyl)-7-methyl-5-phenylpyrazolo[1,5-a]pyrimidine-3-carboxamide] displayed a concentration at half-maximal activity (AC50) of 5.8 µM. This AC50 lies about 1.7-fold lower than the previous one.

Regarding `Cc1cc(-c2ccccc2)nc2c(C(=O)Nc3ccc(Cl)c(Cl)c3)cnn12` [NCGC00229715-01, N-(3,4-dichlorophenyl)-7-methyl-5-phenylpyrazolo[1,5-a]pyrimidine-3-carboxamide], the activity was half-maximal at 6.51 µM (AC50). The figure for `Cc1cc(C)n2ncc(C(=O)Nc3ccccc3)c2n1` [NCGC00187975-01, 5,7-dimethyl-N-phenylpyrazolo[1,5-a]pyrimidine-3-carboxamide] is 8.19 µM. The value for `COc1ccc(NC(=O)c2cnn3c(C)cc(C)nc23)cc1F` [NCGC00188776-01, N-(3-fluoro-4-methoxyphenyl)-5,7-dimethylpyrazolo[,15-a]pyrimidine-3-carboxamide] was 1.46 µM; that for `Cc1cc(C)n2ncc(C(=O)NC3CCC(C(C)(C)C)CC3)c2n1` (stereo not shown) [NCGC00188755-01, N-(4-tert-butylcyclohexyl)-5,7-dimethylpyrazolo[1,5-a]pyrimidine-3-carboxamide] was 4.11 µM; that for `C=C1C=C(C)n2ncc(C(=O)Nc3ccc(C)cn3)c2N1` [NCGC00182198-01, 7-methyl-5-methylene-N-(5-methylpyridin-2-yl)-4,5-dihydropyrazolo[1,5-a]pyrimidine-3-carboxamide] was 15.8 µM. The figure for `C=C1C=C(C)n2ncc(C(=O)Nc3ccc(F)cc3F)c2N1` [NCGC00182166-01, N-(2,4-difluorophenyl)-7-methyl-5-methylene-4,5-dihydropyrazolo[1,5-a]pyrimidine-3-carboxamide] is 3.98 µM; for `Cc1cc(C)n2ncc(C(=O)Nc3ccc(Br)cc3)c2n1` [NCGC00188756-01, N-(4-bromophenyl)-5,7-dimethylpyrazolo[1,5-a]pyrimidine-3-carboxamide] it is 2.06 µM; for `O=C(Nc1ccccc1Sc1ccccc1)c1cnn2c1NC(=C1CC1)C=C2C(F)F` [NCGC00182186-01, 5-cyclopropylidene-7-(difluoromethyl)-N-(2-(phenylthio)phenyl)-4,5-dihydropyrazolo[1,5-a]pyrimidine-3-carboxamide] it is 13 µM and 7.08 µM. As to `O=C(Nc1ccc2c(c1)CCC2)c1cnn2c1NC(=C1CC1)C=C2C(F)F` [NCGC00182174-01, 5-cyclopropylidene-7-(difluoromethyl)-N-(2,3-dihydro-1H-inden-5-yl)-4,5-dihydropyrazolo[1,5-a]pyrimidine-3-carboxamide], the half-maximal activity concentration (AC50) is 3.98 µM. In other words, the single-digit micromolar range. The value for `C=C1C=C(C)n2ncc(C(=O)NCCCCCC)c2N1` [NCGC00182197-01, N-hexyl-7-methyl-5-methylene-4,5-dihydropyrazolo[1,5-a]pyrimidine-3-carboxamide] was 15.8 µM; that for `CCc1ccc(NC(=O)c2cnn3c(C)cc(-c4ccccc4)nc23)cc1` [NCGC00229714-01, N-(4-ethylphenyl)-7-methyl-5-phenylpyrazolo[1,5-a]pyrimidine-3-carboxamide] was 13 µM; that for `CC(C)(C)C1CCC(NC(=O)c2cnn3c2NC(=C2CC2)C=C3C(F)F)CC1` (stereo not shown) [NCGC00182182-01, N-(4-tet-butylcyclohexyl)-5-cyclopropylidene-7-(difluoromethyl)-4,5-dihydropyrazolo[1,5-a]pyrimidine-3-carboxamide] was 11.2 µM. Molecule `C=C1C=C(C(F)F)n2ncc(C(=O)Nc3ccc(N(CC)CC)cc3)c2N1` [NCGC00182154-01, N-(4-(diethylamino)phenyl)-7-(difluoromethyl)-5-methylene-4,5-dihydropyrazolo[1,5-a]pyrimidine-3-carboxamide] registered an AC50 of 11.2 µM.

Consider `C=C1C=C(C(F)F)n2ncc(C(=O)Nc3ccc(C(C)CC)cc3)c2N1` (stereo not shown) [NCGC00182141-01, N-(4-sec-butylphenyl)-7-(difluoromethyl)-5-methylene-4,5-dihydropyrazolo[1,5-a]pyrimidine-3-carboxamide], for which half-maximal activity (AC50) was put at 2.51 µM. The value for `CCc1ccc(NC(=O)c2cnn3c(C)cc(C)nc23)cc1` [NCGC00187970-01, N-(4-ethylphenyl)-5,7-dimethylpyrazolo[1,5-a]pyrimidine-3-carboxamide] was 3.26 µM; that for `Cc1ccc(NC(=O)c2cnn3c(C)cc(C)nc23)c(C)c1` [NCGC00188778-01, N-(2,4-dimethylphenyl)-5,7-dimethylpyrazolo[1,5-a]pyrimidine-3-carboxamide] was 13 µM; that for `Cc1cc(C)n2ncc(C(=O)NC3CCC(C(C)(C)C)CC3)c2n1` (stereo not shown) [NCGC00188754-01, N-(4-tert-butylcyclohexyl)-5,7-dimethylpyrazolo[1,5-a]pyrimidine-3-carboxamide] was 25.9 µM.

`O=C(NC1CCCC1)c1cnn2c1NC(=C1CC1)C=C2C(F)F` [NCGC00182170-01, N-cyclopentyl-5-cyclopropylidene-7-(difluoromethyl)-4,5-dihydropyrazolo[1,5-a]pyrimidine-3-carboxamide] displayed an AC50 of 12.6 µM.
